Experimental findings from article PMC11603219, “Novel Dibenzoazepine-Substituted Triazole Hybrids as Cholinesterase and Carbonic Anhydrase Inhibitors and Anticancer Agents: Synthesis, Characterization, Biological Evaluation, and In Silico Studies” (ACS Omega, 2024) are described below.

The test system of assay [1] is BT-549 cells. The assay can be described thus: Colony formation inhibition assay. The conditions noted are these: for colony formation inhibition: 10 μM, 20 μM, and 30 μM, 7–10 days. In kind it is cell-based, human.
The test system of assay [2] is BT-549 cells. In words: MTT cytotoxicity assay, BT-549. Type of assay: cell-based, human. The conditions noted are these: 96 h treatment. On the technique in general: Tetrazolium dyes change colour on reduction, which living cells bring about.
The target in a further assay is AChE (Homo sapiens, UniProt P22303). In words: biochemical. Type of assay: biochemical.
AChE, sequence (P22303 32-614): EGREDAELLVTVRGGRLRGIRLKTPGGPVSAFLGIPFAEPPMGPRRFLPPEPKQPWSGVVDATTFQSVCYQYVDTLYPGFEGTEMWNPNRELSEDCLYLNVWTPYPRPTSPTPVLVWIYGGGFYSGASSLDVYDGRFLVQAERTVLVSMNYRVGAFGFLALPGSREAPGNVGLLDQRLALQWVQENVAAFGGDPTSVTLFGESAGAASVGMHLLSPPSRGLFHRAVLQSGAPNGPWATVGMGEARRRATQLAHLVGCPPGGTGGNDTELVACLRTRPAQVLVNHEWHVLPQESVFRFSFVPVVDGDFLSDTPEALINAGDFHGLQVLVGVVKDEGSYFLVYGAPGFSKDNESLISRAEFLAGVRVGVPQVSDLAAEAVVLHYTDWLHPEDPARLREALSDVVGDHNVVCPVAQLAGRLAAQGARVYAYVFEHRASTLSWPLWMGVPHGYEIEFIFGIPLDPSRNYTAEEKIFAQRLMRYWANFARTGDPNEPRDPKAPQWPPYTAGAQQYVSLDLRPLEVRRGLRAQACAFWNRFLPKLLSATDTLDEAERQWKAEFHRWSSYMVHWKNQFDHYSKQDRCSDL
In another assay the target is T1, BChE from equine serum (Equus caballus, UniProt P81908).
T1 construct: from tissue; host or cells: equine serum
T1 sequence (P81908 whole entry): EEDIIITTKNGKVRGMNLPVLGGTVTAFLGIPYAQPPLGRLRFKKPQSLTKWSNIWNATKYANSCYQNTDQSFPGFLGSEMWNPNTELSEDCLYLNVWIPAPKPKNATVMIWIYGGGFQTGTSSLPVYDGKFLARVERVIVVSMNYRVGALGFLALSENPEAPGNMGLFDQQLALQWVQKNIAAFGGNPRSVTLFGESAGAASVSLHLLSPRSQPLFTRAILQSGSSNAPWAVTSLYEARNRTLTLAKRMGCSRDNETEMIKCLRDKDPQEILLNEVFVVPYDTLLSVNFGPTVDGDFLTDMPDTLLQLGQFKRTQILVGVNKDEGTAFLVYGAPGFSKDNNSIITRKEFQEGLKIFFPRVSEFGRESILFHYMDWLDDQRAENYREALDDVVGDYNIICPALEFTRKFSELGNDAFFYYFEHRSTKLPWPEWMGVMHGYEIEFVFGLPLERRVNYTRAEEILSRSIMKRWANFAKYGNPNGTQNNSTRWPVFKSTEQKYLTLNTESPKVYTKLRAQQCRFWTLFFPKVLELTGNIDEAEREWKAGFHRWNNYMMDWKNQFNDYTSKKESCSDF
The assay can be described thus: biochemical. Type of assay: biochemical. The method, then: All of the measurements were repeated thrice. AChE and BChE activity were assessed using a modified version of the Ellman method.[48] The measurement of AChE/BChE activity was conducted with acetylthiocholine iodide/butyrylthiocholine iodide as substrates along with 5,5-dithiobis (2-nitrobenzoic) acid.

The test system of another assay is MDA-MB-231 cells. The assay can be described thus: MTT cytotoxicity assay, MDA-MB-231. Type of assay: cell-based. The conditions noted are these: Homo sapiens, 72 h treatment.
For another assay, the target named is hCA I (Homo sapiens, UniProt P00915). The assay can be described thus: biochemical. In kind it is biochemical.
hCA I, sequence (P00915 whole entry): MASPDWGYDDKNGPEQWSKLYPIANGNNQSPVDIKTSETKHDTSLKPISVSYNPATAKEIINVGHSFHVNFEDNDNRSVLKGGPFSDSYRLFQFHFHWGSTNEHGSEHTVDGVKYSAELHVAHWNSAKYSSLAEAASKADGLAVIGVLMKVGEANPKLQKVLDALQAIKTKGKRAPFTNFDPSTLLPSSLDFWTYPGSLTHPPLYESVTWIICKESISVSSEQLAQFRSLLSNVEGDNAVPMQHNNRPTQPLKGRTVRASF
The next assay concerns the target hCA II (Homo sapiens, UniProt P00918). The assay can be described thus: biochemical. Type of assay: biochemical.
The mark [3] stands for this setting: ratio of Ki versus tacrine (TAC/THA).

A word on the IC50: it is the concentration at which inhibition is half-maximal. A higher IC50 goes with weaker potency. The term Ki denotes the equilibrium dissociation constant of an inhibitor or competing ligand from its target. High values mean a looser hold on the target, low ones a stronger hold on the target. In the case of `COc1ccc(-n2cc(CN3c4ccccc4C=Cc4ccccc43)nn2)cc1` [Compound 15, 5-((1-(4-Methoxyphenyl)-1H-1,2,3-triazol-4-yl)methyl)-5H-dibenzo[b,f]azepine], in the assay on BT-549 cells [1], the “concentration at which BT-549 colonies were inhibited/suppressed” value is 20 µM. For the same compound, the colony formation inhibition result in the assay with BT-549 cells [1] is reported as “suppressed the colonies”. Moreover, the IC50 in the assay with BT-549 cells [2] (Homo sapiens, BT-549, 96 h) is 26800 ± 4600 nM; in the assay on MDA-MB-231 cells, > 150000 nM. Besides, the inhibitory constant (Ki) at AChE turned out to be 24.1 ± 0.45 nM; on BChE from equine serum, 4.11 ± 0.46 nM; on hCA I, 54.7 ± 9.63 nM; at hCA II, 39.1 ± 2.17 nM.
For the compound `C1=Cc2ccccc2N(Cc2cn(Cc3ccccc3)nn2)c2ccccc21` [Compound 12, 5-((1-Benzyl-1H-1,2,3-triazol-4-yl)methyl)-5H-dibenzo[b,f]azepine], the IC50 stood at 33500 ± 3030 nM with BT-549 cells [2] (Homo sapiens, BT-549, 96 h) and 12500 ± 1920 nM with MDA-MB-231 cells. Moreover, the Ki on AChE amounted to 28.9 ± 3.52 nM; on BChE from equine serum, 48.8 ± 8.62 nM; on hCA I, 48.8 ± 4.68 nM; at hCA II it was 40.5 ± 5.85 nM.
`Oc1ccccc1-n1cc(CN2c3ccccc3C=Cc3ccccc32)nn1` [Compound 20, 2-(4-((5H-Dibenzo[b,f]azepin-5-yl)methyl)-1H-1,2,3-triazol-1-yl)phenol]: the IC50 was 36200 ± 3770 nM in the assay on BT-549 cells [2] (Homo sapiens, BT-549, 96 h) and > 100000 nM in the assay on MDA-MB-231 cells. For the same compound, the inhibitory constant (Ki) at AChE was 22.8 ± 4.78 nM; at BChE from equine serum it was 16.2 ± 2.43 nM; on hCA I it was 80.4 ± 15.6 nM; on hCA II it was 89.4 ± 4.92 nM.
Consider `COc1cc(-n2cc(CN3c4ccccc4C=Cc4ccccc43)nn2)cc(OC)c1OC` [Compound 19, 5-((1-(3,4,5-Trimethoxyphenyl)-1H-1,2,3-triazol-4-yl)methyl)-5H-dibenzo[b,f]azepine], for which, in the assay on BT-549 cells [1], the “concentration at which BT-549 colonies were inhibited/suppressed” value was 20 µM. Further, the colony formation inhibition result in the assay with BT-549 cells [1] was “suppressed the colonies”. The IC50 in the assay on BT-549 cells [2] is 18100 ± 2140 nM; with BT-549 cells [2] (Homo sapiens, BT-549, 96 h), ≤ 20000 nM; in the assay on MDA-MB-231 cells, > 150000 nM. Also, the Ki on AChE stood at 34.5 ± 8.54 nM; on BChE from equine serum it was 2.22 ± 0.17 nM; on hCA I, 94 ± 15.5 nM; on hCA II, 61.4 ± 9.11 nM.
Turning to `C1=Cc2ccccc2N(Cc2cn(-c3cccc4ccccc34)nn2)c2ccccc21` [Compound 13, 5-((1-(Naphthalen-1-yl)–1H-1,2,3-triazol-4-yl)methyl)-5H-dibenzo[b,f]azepine], the IC50 is > 40000 nM with BT-549 cells [2] (Homo sapiens, BT-549, 96 h) and > 125000 nM in the assay on MDA-MB-231 cells. Also, the Ki at AChE turned out to be 14.1 ± 3.81 nM; on BChE from equine serum it was 1.15 ± 0.15 nM; at hCA I, 62.1 ± 8.53 nM; on hCA II, 28.8 ± 4.64 nM. Further, the “fold more active than tacrine for AChE” value at AChE (setting [3]) turned out to be 5.49 fold. In addition, the “times more inhibition effect than compound 12, BChE” value on BChE from equine serum (ratio of Ki versus compound 12) is given as “approximately 42.48 times”. In addition, at BChE from equine serum (setting [3]), the “fold more active than tacrine for BChE” value came to 49.70 fold. On BChE from equine serum (ratio of Ki, compound 13 and compound 18), the “times more inhibition effect, BChE, compound 18 comparison” value was 34.04 times.
As to `O=[N+]([O-])c1ccc(-n2cc(CN3c4ccccc4C=Cc4ccccc43)nn2)cc1` [Compound 18, 5-((1-(4-Nitrophenyl)-1H-1,2,3-triazol-4-yl)methyl)-5H-dibenzo[b,f]azepine], the 50% inhibitory concentration (IC50) in the assay on BT-549 cells [2] (Homo sapiens, BT-549, 96 h) is > 40000 nM; in the assay on MDA-MB-231 cells, > 150000 nM. Further, the Ki stood at 44.7 ± 9.61 nM at AChE, 39.1 ± 8.82 nM on BChE from equine serum, 118 ± 21 nM at hCA I and 69.7 ± 5.93 nM on hCA II.
As to `NS(=O)(=O)c1ccc(-n2cc(CN3c4ccccc4C=Cc4ccccc43)nn2)cc1` [Compound 17, 4-(4-((5H-Dibenzo[b,f]azepin-5-yl)methyl)-1H-1,2,3-triazol-1-yl)benzenesulfonamide], the “concentration at which BT-549 colonies were inhibited/suppressed” value in the assay with BT-549 cells [1] was found to be 20 µM. In addition, in the assay on BT-549 cells [1], the colony formation inhibition entry is reported as “suppressed the colonies”. The IC50 is 17400 ± 3090 nM with BT-549 cells [2]; ≤ 20000 nM in the assay on BT-549 cells [2] (Homo sapiens, BT-549, 96 h); 36500 ± 1620 nM in the assay with MDA-MB-231 cells. The inhibition constant (Ki) on AChE worked out at 19 ± 5.44 nM; at BChE from equine serum, 15.3 ± 1.12 nM; on hCA I, 40.5 ± 11.1 nM; on hCA II, 56.7 ± 11.5 nM.
For `C1=Cc2ccccc2N(Cc2cn(-c3cccnc3)nn2)c2ccccc21` [Compound 14, 5-((1-(Pyridin-3-yl)-1H-1,2,3-triazol-4-yl)methyl)-5H-dibenzo[b,f]azepine], the “concentration at which BT-549 colonies were inhibited/suppressed” value with BT-549 cells [1] is 10 µM. Also, the colony formation inhibition result in the assay with BT-549 cells [1] is “suppressed the colonies”. Further, the IC50 with BT-549 cells [2] was 16600 ± 970 nM; in the assay with BT-549 cells [2] (Homo sapiens, BT-549, 96 h) it was ≤ 20000 nM; in the assay with MDA-MB-231 cells, > 75000 nM. Further, the Ki came out at 21.2 ± 5.87 nM at AChE, 7.65 ± 1.49 nM on BChE from equine serum, 29.9 ± 5.93 nM at hCA I and 17.7 ± 1.54 nM on hCA II. At hCA I (ratio of Ki versus AZA), the “fold more active than acetazolamide for hCA I” value came out at 4.16 fold. Moreover, on hCA II (ratio of Ki versus AZA), the “fold more active than acetazolamide for hCA II” value was 5.79 fold.
Take `O=c1ccc2ccc(OCCn3cc(CN4c5ccccc5C=Cc5ccccc54)nn3)cc2o1` [Compound 16, 7-(2-(4-((5H-Dibenzo[b,f]azepin-5-yl)methyl)-1H-1,2,3-triazol-1-yl)ethoxy)-2H-chromen-2-one]: the colony formation inhibition result with BT-549 cells [1] is on record as “suppressed the colonies”. Moreover, the IC50 with BT-549 cells [2] was 17700 ± 2540 nM; in the assay with BT-549 cells [2] (Homo sapiens, BT-549, 96 h), ≤ 20000 nM; with MDA-MB-231 cells it was > 150000 nM. For the same compound, the Ki at AChE came to 17.5 ± 2.19 nM; at BChE from equine serum, 11.2 ± 1.55 nM; on hCA I, 122 ± 20.2 nM; on hCA II, 54.6 ± 1.99 nM.
